Test results as given in ChEMBL document CHEMBL2346568, “Discovery and structure-activity relationship of thienopyridine derivatives as bone anabolic agents” (Bioorg Med Chem, 2013).
Calls of active or inactive are those of the source. No cut-off for these calls is given here.

Legend:
[1] = Induction of osteoblastic differentiation in mouse ST2 cells assessed as increase in alkaline phosphatase activity after 4 days by lowry method; format: functional
Rattus norvegicus [2] = assay: Volume of distribution in F344 rat at 25 mg/kg, po; format: ADME, organism-based; design: dose 25 mg/kg, route oral; settings: in vivo
Rattus norvegicus [3] = assay: Bone anabolic effect in ovariectomized F344 rat postmenopausal osteoporosis model assessed as increase in serum osteocalcin level at 10 to 30 mg/kg, po qd for 6 weeks by ELISA; format: functional, organism-based
Rattus norvegicus [4] = assay: Bone anabolic effect in ovariectomized F344 rat postmenopausal osteoporosis model assessed as increase in areal bone mineral density of distal femur at 10 to 30 mg/kg, po qd for 6 weeks by dual energy X-ray absorptiometry; format: functional, organism-based
[5] = Half life in F344 rat at 2 mg/kg, iv; settings: in vivo
[6] = Clearance in F344 rat at 25 mg/kg, po; settings: in vivo
[7] = Cmax in F344 rat at 25 mg/kg, po; format: ADME, organism-based; design: dose 25 mg/kg, route oral; settings: in vivo
[8] = Volume of distribution in F344 rat at 2 mg/kg, iv; format: ADME, organism-based; design: dose 2 mg/kg, route intravenous; settings: in vivo
[9] = AUC in F344 rat at 2 mg/kg, iv; format: ADME, organism-based; design: dose 2 mg/kg, route intravenous; settings: plasma
[10] = Half life in F344 rat at 25 mg/kg, po; settings: in vivo
Rattus norvegicus [11] = assay: Bone anabolic effect in ovariectomized F344 rat postmenopausal osteoporosis model assessed as increase in areal bone mineral density of proximal tibiae at 10 to 30 mg/kg, po qd for 6 weeks by dual energy X-ray absorptiometry; format: functional, organism-based
in vitro = settings: rat, liver microsomes
Rattus norvegicus [12] = assay: Bone anabolic effect in ovariectomized F344 rat postmenopausal osteoporosis model assessed as increase in areal bone mineral density of femoral diaphyses at 10 to 30 mg/kg, po qd for 6 weeks by dual energy X-ray absorptiometry; format: functional, organism-based
[13] = Oral bioavailability in F344 rat at 25 mg/kg; format: ADME, organism-based; settings: in vivo
[14] = Clearance in F344 rat at 2 mg/kg, iv; settings: in vivo
[15] = AUC in F344 rat at 25 mg/kg, po; format: ADME, organism-based; design: dose 25 mg/kg, route oral; settings: plasma
[16] = Induction of osteoblastic differentiation in mouse ST2 cells assessed as increase in alkaline phosphatase activity at 0.30 ug/ml after 4 days by lowry method; format: functional
Rattus norvegicus [17] = assay: Bone anabolic effect in ovariectomized F344 rat postmenopausal osteoporosis model assessed as increase in areal bone mineral density of femoral diaphyses at 60 mg/kg, po bid for 6 weeks by dual energy X-ray absorptiometry; format: functional, organism-based; design: dose 60 mg/kg
Rattus norvegicus [18] = assay: Bone anabolic effect in ovariectomized F344 rat postmenopausal osteoporosis model assessed as increase in serum osteocalcin level at 60 mg/kg, po bid for 6 weeks by ELISA; format: functional, organism-based; design: dose 60 mg/kg
Rattus norvegicus [19] = assay: Bone anabolic effect in ovariectomized F344 rat postmenopausal osteoporosis model assessed as increase in areal bone mineral density of distal femur at 60 mg/kg, po bid for 6 weeks by dual energy X-ray absorptiometry; format: functional, organism-based; design: dose 60 mg/kg
Rattus norvegicus [20] = assay: Bone anabolic effect in ovariectomized F344 rat postmenopausal osteoporosis model assessed as increase in areal bone mineral density of proximal tibiae at 60 mg/kg, po bid for 6 weeks by dual energy X-ray absorptiometry; format: functional, organism-based; design: dose 60 mg/kg

For `NC(=O)c1sc2nccc(N3CCCC3)c2c1N`, which EC200 [1] is on record?
The EC200 was 0.29 µg/mL.

Which Vd (Rattus norvegicus [2]) does the source give for `NC(=O)c1sc2nccc(N3CCCN(c4ccccc4)CC3)c2c1N` here?
The Vd was 8.1 L/kg.

What about the Activity (Rattus norvegicus [3]) of the same compound?
Its Activity is “Active”.

And the Activity (Rattus norvegicus [4])?
The Activity was “Active”.

What about the half-life [5] of the same compound?
Its half-life is 2.77 h.

What about the CL/F [6] of the same compound?
The CL/F was 34 mL/min/kg.

What about the Cmax [7] of the same compound?
Its Cmax is 2540 ng/mL.

What about the Vd [8] of the same compound?
Its Vd is 4.2 L/kg.

And the EC200 [1]?
Its EC200 is 0.051 µg/mL.

And the AUC [9]?
Its AUC is 1100 ng·h/mL.

And the half-life [10]?
The half-life was 3.22 h.

What about the Activity (Rattus norvegicus [11]) of the same compound?
The Activity was “Active”.

And the remaining at 0.5 h (in vitro)?
The remaining at 0.5 h was 71%.

What about the Activity (Rattus norvegicus [12]) of the same compound?
Its Activity is “Active”.

And the bioavailability [13]?
Its bioavailability is 71%.

And the clearance [14]?
The clearance was 29 mL/min/kg.

What about the AUC [15] of the same compound?
Its AUC is 9500 ng·h/mL.

Which EC200 [1] does the source give for `Cc1ccc(N2CCCN(c3ccnc4sc(C(N)=O)c(N)c34)CC2)cc1` here?
Its EC200 is 0.044 µg/mL.

Which EC200 [1] does the source give for `Cc1ccccc1N1CCCN(c2ccnc3sc(C(N)=O)c(N)c23)CC1` here?
The EC200 was greater than 1 µg/mL.

With `CN1CCN(c2ccnc3sc(C(N)=O)c(N)c23)CC1` as the compound, how does the Activity [16] read?
Its Activity is 117%.

With `CN(C)c1ccnc2sc(C(N)=O)c(N)c12` as the compound, how does the Vd (Rattus norvegicus [2]) read?
Its Vd is 3.1 L/kg.

What about the Activity (Rattus norvegicus [17]) of the same compound?
The Activity was “Active”.

And the Activity (Rattus norvegicus [18])?
Its Activity is “Active”.

What about the Cmax [7] of the same compound?
The Cmax was 5590 ng/mL.

And the Vd [8]?
Its Vd is 1.1 L/kg.

What about the EC200 [1] of the same compound?
The EC200 was 0.17 µg/mL.

And the AUC [9]?
Its AUC is 870 ng·h/mL.

What about the Activity (Rattus norvegicus [19]) of the same compound?
Its Activity is “Active”.

What about the Activity (Rattus norvegicus [20]) of the same compound?
The Activity was “Active”.

What about the bioavailability [13] of the same compound?
Its bioavailability is 87%.

What about the AUC [15] of the same compound?
The AUC was 9400 ng·h/mL.

With `CC(C)Oc1ccc(N2CCCN(c3ccnc4sc(C(N)=O)c(N)c34)CC2)cc1` as the compound, how does the EC200 [1] read?
The EC200 was greater than 1 µg/mL.

With `N#Cc1ccc(N2CCCN(c3ccnc4sc(C(N)=O)c(N)c34)CC2)cc1` as the compound, how does the EC200 [1] read?
The EC200 was 0.099 µg/mL.

With `NC(=O)c1sc2nccc(N3CCCN(c4ccc(C(=O)O)cc4)CC3)c2c1N` as the compound, how does the EC200 [1] read?
The EC200 was greater than 1 µg/mL.

With `NC(=O)c1sc2nccc(N3CCCN(c4ccccn4)CC3)c2c1N` as the compound, how does the EC200 [1] read?
Its EC200 is 0.059 µg/mL.

For `CNC(=O)c1ccc(N2CCCN(c3ccnc4sc(C(N)=O)c(N)c34)CC2)cc1`, which EC200 [1] is on record?
Its EC200 is 0.023 µg/mL.

Which Activity [16] does the source give for `NC(=O)c1sc2nccc(N3CCNCC3)c2c1N` here?
The Activity was 105%.

For `NC(=O)c1sc2nccc(N3CCOCC3)c2c1N`, which EC200 [1] is on record?
The EC200 was 0.44 µg/mL.

What about the remaining at 0.5 h (in vitro) of the same compound?
The remaining at 0.5 h was 82%.

For `CCCNc1ccnc2sc(C(N)=O)c(N)c12`, which Activity [16] is on record?
Its Activity is 134%.

Which EC200 [1] does the source give for `NC(=O)c1sc2nccc(N3CCCN(c4nccs4)CC3)c2c1N` here?
The EC200 was 0.036 µg/mL.

Which EC200 [1] does the source give for `CN(C)C(=O)c1ccc(N2CCCN(c3ccnc4sc(C(N)=O)c(N)c34)CC2)cc1` here?
The EC200 was 0.014 µg/mL.

With `CC(C)(C)c1ccc(N2CCCN(c3ccnc4sc(C(N)=O)c(N)c34)CC2)cc1` as the compound, how does the EC200 [1] read?
The EC200 was 0.27 µg/mL.

Which EC200 [1] does the source give for `CN(C)C(=O)Cc1ccc(N2CCCN(c3ccnc4sc(C(N)=O)c(N)c34)CC2)cc1` here?
Its EC200 is 0.003 µg/mL.

For `NC(=O)c1sc2nccc(N3CCCN(c4ccc(F)cc4)CC3)c2c1N`, which EC200 [1] is on record?
Its EC200 is 0.082 µg/mL.

Which EC200 [1] does the source give for `NC(=O)c1sc2nccc(N3CCCCC3)c2c1N` here?
Its EC200 is 0.067 µg/mL.

And the remaining at 0.5 h (in vitro)?
Its remaining at 0.5 h is 2%.

For `NC(=O)c1ccc(N2CCCN(c3ccnc4sc(C(N)=O)c(N)c34)CC2)cc1`, which EC200 [1] is on record?
The EC200 was 0.079 µg/mL.

For `NC(=O)c1sc2nccc(NC3CCCCC3)c2c1N`, which EC200 [1] is on record?
Its EC200 is 0.24 µg/mL.

For `CCOC(=O)c1ccc(N2CCCN(c3ccnc4sc(C(N)=O)c(N)c34)CC2)cc1`, which EC200 [1] is on record?
The EC200 was 0.193 µg/mL.

Which EC200 [1] does the source give for `NC(=O)c1sc2nccc(N3CCCN(c4ccncc4)CC3)c2c1N` here?
The EC200 was 0.091 µg/mL.

Which results are given for `NC(=O)c1sc2nccc(N3CCN(c4ccccc4)CC3)c2c1N`?
EC200 [1]: 0.1 µg/mL; remaining at 0.5 h (in vitro): 91%

For `COc1ccc(N2CCCN(c3ccnc4sc(C(N)=O)c(N)c34)CC2)cc1`, which EC200 [1] is on record?
Its EC200 is 0.035 µg/mL.

For `Cc1cccc(N2CCCN(c3ccnc4sc(C(N)=O)c(N)c34)CC2)c1`, which EC200 [1] is on record?
The EC200 was 0.074 µg/mL.

For `CCCN(CCC)c1ccnc2sc(C(N)=O)c(N)c12`, which Activity [16] is on record?
Its Activity is 110%.
